Reference: ChEMBL document CHEMBL1201862, “PubChem BioAssay data set” (2004)
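Cells were grown in 96-well plates and exposed to each compound for 48 hours at five concentrations; endpoints were interpolated linearly between bracketing concentrations, or set to the highest concentration if not reached. GI50 = concentration required for 50% inhibition of growth.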 The source made the active and inactive calls. No stated cut-off is given here; in the data, active = GI50 up to about 1.1 µM and inactive = higher.

Key:
Assay in all cases: inhibition of tumour cell growth, NCI panel, 48 h
786-0 = test system: 786-0
A498 = test system: A498
A549 = test system: A549
CAKI-1 = test system: CAKI-1
CCRF-CEM = test system: CCRF-CEM
COLO 205 = test system: COLO 205
DLD-1 = test system: DLD-1
DMS-114 = test system: DMS-114
DMS-273 = test system: DMS-273
EKVX = test system: EKVX
HCT-116 = test system: HCT-116
HCT-15 = test system: HCT-15
HL-60 = test system: HL-60
HOP-18 = test system: HOP-18
HOP-62 = test system: HOP-62
HOP-92 = test system: HOP-92
HT-29 = test system: HT-29
K562 = test system: K562
KM-20L2 = test system: KM-20L2
KM12 = test system: KM12
LOX IMVI = test system: LOX IMVI
LXFL 529 = test system: LXFL 529
M14 = test system: M14
M19-MEL = test system: M19-MEL
MOLT-4 = test system: MOLT-4
Malme-3M = test system: Malme-3M
NCI-H226 = test system: NCI-H226
NCI-H23 = test system: NCI-H23
NCI-H460 = test system: NCI-H460
NCI-H522 = test system: NCI-H522
OVCAR-3 = test system: OVCAR-3
OVCAR-4 = test system: OVCAR-4
OVCAR-5 = test system: OVCAR-5
OVCAR-8 = test system: OVCAR-8
RPMI-8226 = test system: RPMI-8226
RXF 393 = test system: RXF 393
RXF 631 = test system: RXF 631
SF-268 = test system: SF-268
SF-295 = test system: SF-295
SF-539 = test system: SF-539
SK-MEL-2 = test system: SK-MEL-2
SK-MEL-5 = test system: SK-MEL-5
SK-OV-3 = test system: SK-OV-3
SN12C = test system: SN12C
SNB-19 = test system: SNB-19
SNB-75 = test system: SNB-75
SNB-78 = test system: SNB-78
SR = test system: SR
SW-620 = test system: SW-620
TK-10 = test system: TK-10
U-251 = test system: U-251
UACC-257 = test system: UACC-257
UACC-62 = test system: UACC-62
UO-31 = test system: UO-31
XF498 = test system: XF498

Measured: GI50

COc1ccc(C(c2ccc(C(C)C)cc(OC)c2=O)c2ccc(C(C)C)cc(OC)c2=O)cc1
12.7 µM: HCT-15
inactive: 786-0 16.6 µM | A498 17.7 µM | A549 12 µM | CAKI-1 18.9 µM | CCRF-CEM 10.2 µM | COLO 205 17.2 µM | DLD-1 6.3 µM | DMS-114 12.3 µM | DMS-273 14.8 µM | EKVX 13.6 µM | HCT-116 11.1 µM | HL-60 12.2 µM | HOP-18 25.4 µM | HOP-62 21 µM | HOP-92 13.6 µM | HT-29 10.8 µM | K562 10.7 µM | KM-20L2 14.1 µM | KM12 13.5 µM | LOX IMVI 15.3 µM | LXFL 529 14.5 µM | M14 14.9 µM | M19-MEL 14.1 µM | MOLT-4 7.53 µM | Malme-3M 16.5 µM | NCI-H226 18.1 µM | NCI-H23 16.3 µM | NCI-H460 14.6 µM | NCI-H522 14.4 µM | OVCAR-3 13.2 µM | OVCAR-4 12.2 µM | OVCAR-5 20.1 µM | OVCAR-8 16.6 µM | RPMI-8226 5.06 µM | RXF 393 4.15 µM | RXF 631 15 µM | SF-268 13.6 µM | SF-295 16.2 µM | SF-539 17 µM | SK-MEL-2 15.9 µM | SK-MEL-5 14.3 µM | SK-OV-3 18.4 µM | SN12C 16.1 µM | SNB-19 15.9 µM | SNB-75 19.6 µM | SNB-78 13.2 µM | SR 10.4 µM | SW-620 15.5 µM | TK-10 19.6 µM | U-251 13.7 µM | UACC-257 15.5 µM | UACC-62 14.8 µM | UO-31 14.3 µM | XF498 20.4 µM
